Laboratory results as given in patent US20130029942A1, “COMPOUNDS AND THERAPEUTICAL USES THEREOF” (Myrexis, Inc., priority 2003, published 2013).
Where two headings read alike, the source gives them in different places.

Experiments:
[1] = test system: P388 murine leukemia cell line; assay: P388 cytotoxicity (ATP-Lite, 72 hours); format: cell-based; conditions: Mus musculus, P388, 72 hours
Protocol: A P388 murine leukemia cell line was obtained from NCI, Frederick, Md. P388 cells were cultured in RPMI-1640 supplemented with 10% fetal bovine serum, 2 mM Glutamax, 1 mM sodium pyruvate, 0.1 mM non-essential amino acids and 10 mM HEPES. Cells were grown at 37° C. in a humidified 5% CO2 atmosphere. Exponentially growing P388 cells were plated at 5,000 cells/well in a 96-well flat-bottomed microtiter plate (Corning, Costar #3595). […] Cellular viability was determined 72 hours later by measuring intracellular ATP with ATP-Lite assay system. The effect of compounds on cell viability was calculated by comparing the ATP levels of cells exposed to test compound with those of cells exposed to DMSO. […] Data was analyzed by Prism software (GraphPad; San Diego, Calif.) by fitting it to a sigmoidal dose response curve.

T-47D cells = assay: Caspase cascade activation / induction of apoptosis in T-47D cells (fluorogenic N-(Ac-DEVD)-N'-ethoxycarbonyl-R110 substrate); format: cell-based, human; conditions: T-47D; for EC50: Homo sapiens, T47D
[2] = 24 hr, read-out: T-47D (24 hr) EC50
[3] = 48 hr, read-out: T-47D (48 hr) EC50
[4] = 48 hr, benzohydrazide table, read-out: T-47D (48 hr) EC50

Structure (SMILES)	EC50 (T-47D cells; [2])	EC50 (T-47D cells; [3])	further results
CCOc1ccc(N(C)c2nc(C)nc3ccc([N+](=O)[O-])cc23)cc1 [Example 207, (4-Ethoxy-phenyl)-methyl-(2-methyl-6-nitro-quinazolin-4-yl)-amine]			IC50 [1]: 17 nM
COc1ccc(N(C)c2nc(C)nc3ccc(N)cc23)c(F)c1 [Example 222, N^4-(2-Fluoro-4-methoxy-phenyl)-2,N^4-dimethyl-quinazoline-4,6-diamine]			IC50 [1]: 6 nM
CCOc1ccc(N(C)c2nc(CN)nc3cccc(F)c23)cc1 [Example 239, (2-Aminomethyl-5-fluoro-quinazolin-4-yl)-(4-ethoxy-phenyl)-methyl-amine]			IC50 [1]: 22 nM
CCOc1ccc(N(C)c2nc(C)nc3ccccc23)cc1F [Example 253, (4-Ethoxy-3-fluoro-phenyl)-methyl-(2-methyl-quinazolin-4-yl)-amine]			IC50 [1]: 3 nM
COC(=O)COc1ccc(N(C)c2nc(C)nc3ccccc23)cc1 [Example 143, {4-[Methyl-(2-methyl-quinazolin-4-yl)-amino]phenoxy}-acetic acid methyl ester]			IC50 [1]: 2200 nM
COc1ccc(N(C)c2nc(NCCN)nc3ccccc23)cc1 [Example 145, N^2-(2-Amino-ethyl)-N^4-(4-methoxy-phenyl)-N^4-methyl-quinazoline-2,4-diamine]			IC50 [1]: 38 nM
CN(c1ccc(Cl)cc1)c1nc(N(C)c2ccc(Cl)cc2)c2ccccc2n1 [Example 19, N^2,N^4-Bis(4-chloro-phenyl)-N^2,N^4-dimethyl-quinazoline-2,4-diamine]	> 10000 nM	> 10000 nM	
CN(c1ccccc1)c1nc(N(C)c2ccccc2)c2ccccc2n1 [Example 18, N^2,N^4-Dimethyl-N^2,N^4-diphenyl-quinazoline-2,4-diamine]	> 10000 nM	> 10000 nM	
COc1ccc(N(C)c2nc(NCCO)nc3ccccc23)cc1 [Example 11, N^2-(2-Hydroxylethyl)-N^4-(4-methoxy-phenyl)-N^4-methyl-quinazoline-2,4-diamine]	8 nM	10 nM	
COc1ccc(Nc2nc(Cl)nc3ccccc23)c(OC)c1 [Example 30, (2-Chloro-quinazolin-4-yl)-(2,4-dimethoxy-phenyl)-amine]		> 10000 nM	
Clc1nc(Nc2ccncc2)c2ccccc2n1 [Example 27, (2-Chloro-quinazolin-4-yl)-pyridin-4-yl-amine]		> 10000 nM	
CSc1nc(N(C)NC(=O)c2cccc(C)c2)c2ccccc2n1			EC50 (T-47D cells; [4]): 46 nM; T-47D (48 hr) Ratio (T-47D cells; 48 hr, benzohydrazide table): 12.7
CSc1nc(N(C)NC(=O)c2ccc(F)cc2)c2ccccc2n1			EC50 (T-47D cells; [4]): 290 nM; T-47D (48 hr) Ratio (T-47D cells; 48 hr, benzohydrazide table): 13.8
COc1ccc2c(ccn2-c2nc(Cl)nc3ccccc23)c1 [Example 9, 2-Chloro-4-(5-methoxyindol-1-yl)quinazoline]		> 10000 nM	
CC(C)=CCC/C(C)=C/CNc1nc(N(C)c2ccc(C)cc2)c2ccccc2n1 [Example 16, N^2-(3,7-Dimethyl-octa-2,6-dienyl)-N^4-(4-methyl-phenyl)-N^4-methyl-quinazoline-2,4-diamine]	296 nM		
COc1ccc(N(C)c2nc(NCCc3c[nH]cn3)nc3ccccc23)cc1 [Example 46, N^2-[2-(1H-Imidazol-4-yl)-ethyl]-N^4-(4-methoxy-phenyl)-N^4-methyl-quinazoline-2,4-diamine]	2180 nM	2270 nM	
CN(c1ccc([N+](=O)[O-])cc1)c1nc(Cl)nc2ccccc12 [Example 4, (2-Chloro-quinazolin-4-yl)-(4-nitro-phenyl)-methyl-amine]	872 nM		
COc1ccc(N(C)c2nc(NC/C=C(\C)CCC=C(C)C)nc3cc(OC)c(OC)cc23)cc1 [Example 24, 6,7-Dimethoxy-N^2-(3,7-dimethyl-octa-2,6-dienyl)-N^4-(4-methoxy-phenyl)-N^4-methyl-quinazoline-2,4-diamine]	> 10000 nM	9460 nM	
COc1ccc(N(C)c2nc(NCCN3CCOCC3)nc3cc(OC)c(OC)cc23)cc1 [Example 23, 6,7-Dimethoxy-N^4-(4-methoxy-phenyl)-N^4-methyl-N^2-(2-morpholin-4-yl-ethyl)-quinazoline-2,4-diamine]	> 10000 nM	> 10000 nM	
COc1ccccc1Nc1nc(Cl)nc2ccccc12 [Example 33, (2-Chloro-quinazolin-4-yl)-(2-methoxy-phenyl)-amine]		> 10000 nM	
COc1ccc(N(c2nc(Cl)nc3ccccc23)C2CCCCC2)cc1 [Example 38, (2-Chloro-quinazolin-4-yl)-cyclohexyl-(4-methoxy-phenyl)-amine]	2930 nM		
COc1ccc(N(C)c2nc(NCCO)nc3ccccc23)cn1 [Example 48, N^2-(2-Hydroxyethyl)-N^4-(6-methoxypyridin-3-yl)-N^4-methyl-quinazoline-2,4-diamine]		137 nM	
COc1cccc(Nc2nc(Cl)nc3ccccc23)c1OC [Example 29, (2-Chloro-quinazolin-4-yl)-(2,3-dimethoxy-phenyl)-amine]		> 10000 nM	

Second part, led by results:

EC50 (T-47D cells; [2])	EC50 (T-47D cells; [3])	Structure (SMILES)	further results
134 nM		Cc1nc(N(C)c2ccc(N)cc2Br)c2ccccc2n1 [Example 104, (4-Amino-2-bromo-phenyl)-(2-methyl-quinazolin-4-yl)-methyl-amine]	
4 nM		COc1ccc(N(C)c2nc(C)nc3cccc(OC)c23)cc1 [Example 91, (5-Methoxy-2-methyl-quinazolin-4-yl)-(4-methoxy-phenyl)-methyl-amine]	
	5 nM	CCOc1ccc(N(C)c2nc(Cl)nc3ccccc23)cc1 [Example 97, (2-Chloro-quinazolin-4-yl)-(4-ethoxy-phenyl)-methylamine]	
58 nM		COc1ccc(N(C)c2nc(N(C)C)nc3ccccc23)cn1 [Example 128, (2-Dimethylamino-quinazolin-4-yl)-(6-methoxy-pyridin-3-yl)-methyl-amine]	
	> 10000 nM	COc1ccc(N(C)c2nc(OC(C)C)nc3cccc(Cl)c23)cc1 [Example 64, (5-Chloro-2-isopropoxy-quinazolin-4-yl)-(4-methoxy-phenyl)-methyl-amine]	
27 nM		COc1ccc(N(C)c2nc(C)nc3nccnc23)cc1 [Example 140, (4-Methoxy-phenyl)-(2-methyl-pteridin-4-yl)-methyl-amine]	
	> 10000 nM	CCOc1ccc(Nc2nc(Cl)nc3ccccc23)cc1 [Example 94, (2-Chloro-quinazolin-4-yl)-(4-ethoxy-phenyl)-amine]	
29 nM	22 nM	COc1ccc(N(C)c2nc(N)nc3ccccc23)cn1 [Example 49, N^4-(6-methoxypyridin-3-yl)-N^4-methyl-quinazoline-2,4-diamine]	
	427 nM	COc1ccc(N(C)c2nc(N(C)c3ccc(OC)cc3)c3c(Cl)cccc3n2)cc1 [Example 63, 5-Chloro-N^2,N^4-bis-(4-methoxy-phenyl)-N^2,N^4-dimethyl-quinazoline-2,4-diamine]	
15 nM		COc1ccc(N(C)c2nc(C)nc3ccccc23)nc1 [Example 138, (5-Methoxy-pyridin-2-yl)-(2-methyl-quinazolin-4-yl)-methyl-amine]	
> 10000 nM		COc1ccc(Nc2nc(C)nc3ccccc23)cc1F [Example 79, (3-Fluoro-4-methoxy-phenyl)-(2-methyl-quinazolin-4-yl)-amine]	
	13 nM	COc1ccc(N(C)c2nc(Cl)nc3ccc(Cl)cc23)cc1 [Example 60, (2,6-Dichloro-quinazolin-4-yl)-(4-methoxy-phenyl)-methyl-amine]	
16 nM		COc1ccc(N(C)c2nc(N(C)C)nc3ccccc23)cc1 [Example 122, (2-Dimethylamino-quinazolin-4-yl)-(4-methoxy-phenyl)-methyl-amine]	
> 10000 nM		Cc1nc(Nc2ccncc2)c2ccccc2n1 [Example 135, (2-Methyl-quinazolin-4-yl)-(pyridin-4-yl)-amine]	
7 nM	8 nM	COc1ccc(N(C)c2nc(CO)nc3ccccc23)cc1 [Example 76]	
> 10000 nM		Cc1nc(Nc2ccc(O)cc2)c2ccccc2n1 [Example 127, (4-hydroxy-phenyl)-(2-methyl-quinazolin-4-yl)-amine]	
	38 nM	CN(c1ccc2c(c1)OCO2)c1nc(Cl)nc2ccccc12 [Example 67, (2-Chloro-quinazolin-4-yl)-(3,4-methylenedioxyphenyl)-methyl-amine]	
> 10000 nM		CCOc1ccc(Nc2nc(C)nc3ccccc23)cc1 [Example 106, (4-Ethoxy-phenyl)-(2-methyl-quinazolin-4-yl)-amine]	
	1 nM	COc1ccc(N(C)c2nc(CF)nc3ccccc23)cc1 [Example 55, (2-Fluoromethyl-quinazolin-4-yl)-(4-methoxy-phenyl)-methyl-amine]	
408 nM		Cc1nc(N(C)c2ccc(F)cc2)c2ccccc2n1 [Example 124, (4-Fluoro-phenyl)-(2-methyl-quinazolin-4-yl)-methyl-amine]	
679 nM	543 nM	COc1ccc(N(C)c2nc(CCl)nc3ccccc23)cc1 [Example 73, (2-Chloromethyl-quinazolin-4-yl)-(4-methoxy-phenyl)-methyl-amine]	
> 10000 nM		Cc1nc(N(C)c2ccc(C(=O)O)cc2)c2ccccc2n1 [Example 116, 4-(N-Methyl-N-(2-methylquinazolin-4-yl)amino)benzoic Acid]	
> 10000 nM		CCc1ccc(Nc2nc(C)nc3ccccc23)cc1 [Example 81, (4-Ethyl-phenyl)-(2-methyl-quinazolin-4-yl)-amine]	
